In ChEMBL document CHEMBL1150608, “Five new labdane diterpenes from Aster oharai” (2002):
≈ marks a conversion by molar mass, not a printed value.

Key:
Format in all cases: functional
Conditions in all cases: read-out: ED50 (the source's name)
HCT-15 = experiment: Cytotoxicity against human HCT15 cells by sulforhodamine B method
LOX IMVI = experiment: Cytotoxicity against human LOXIMVI cells by sulforhodamine B method
SW-620 = experiment: Cytotoxicity against human SW620 cells by sulforhodamine B method
A549 = experiment: Cytotoxicity against human A549 cells by sulforhodamine B method
SK-MEL-2 = experiment: Cytotoxicity against human SK-MEL-2 cells by sulforhodamine B method
U-251 = experiment: Cytotoxicity against human U251 cells by sulforhodamine B method
SK-OV-3 = experiment: Cytotoxicity against human SKOV3 cells by sulforhodamine B method
SNB-19 = experiment: Cytotoxicity against human SNB19 cells by sulforhodamine B method

Row | Compound | EC50 (HCT-15) | EC50 (LOX IMVI) | EC50 (SW-620) | EC50 (A549) | EC50 (SK-MEL-2) | EC50 (U-251) | EC50 (SK-OV-3) | EC50 (SNB-19)
1 | C=C[C@@](C)(CC[C@H]1C(C)=CC[C@H]2C(C)(C)CCC[C@]12C)O[C@@H]1O[C@@H](C)[C@H](O)[C@@H](O)[C@H]1OC(C)=O | > 10 µg/mL | > 10 µg/mL | > 10 µg/mL | > 10 µg/mL | > 10 µg/mL | > 10 µg/mL | > 10 µg/mL | > 10 µg/mL
2 | C=C[C@@](C)(CCC1=C(C)[C@H](OO)C[C@H]2C(C)(C)CCC[C@]12C)O[C@@H]1O[C@@H](C)[C@@H](OC(C)=O)[C@H](O)[C@H]1O | > 10 µg/mL | > 10 µg/mL | > 10 µg/mL | > 10 µg/mL | > 10 µg/mL | > 10 µg/mL | > 10 µg/mL | > 10 µg/mL
3 | C=C[C@@](C)(CC[C@H]1C(C)=CC[C@H]2C(C)(C)CCC[C@]12C)O[C@@H]1O[C@@H](C)[C@H](OC(C)=O)[C@@H](O)[C@H]1O | > 10 µg/mL | > 10 µg/mL | > 10 µg/mL | > 10 µg/mL | > 10 µg/mL | > 10 µg/mL | > 10 µg/mL | > 10 µg/mL
4 | C=C[C@@](C)(CC[C@H]1C(C)=CC[C@H]2C(C)(C)CCC[C@]12C)O[C@@H]1O[C@@H](C)[C@H](O)[C@@H](OC(C)=O)[C@H]1O | > 10 µg/mL | > 10 µg/mL | > 10 µg/mL | > 10 µg/mL | > 10 µg/mL | > 10 µg/mL | > 10 µg/mL | > 10 µg/mL
5 | COc1cccc2c1C(=O)c1c(O)c3c(c(O)c1C2=O)C[C@@](O)(C(=O)CO)C[C@@H]3O[C@H]1C[C@H](N)[C@H](O)[C@H](C)O1 [DOXORUBICIN] | 0.006 µg/mL (≈ 0.011 µM) | 0.001 µg/mL (≈ 0.00184 µM) | 0.003 µg/mL (≈ 0.00552 µM) | 0.001 µg/mL (≈ 0.00184 µM) | 0.002 µg/mL (≈ 0.00368 µM) | 0.001 µg/mL (≈ 0.00184 µM) | 0.01 µg/mL (≈ 0.0184 µM) | 0.002 µg/mL (≈ 0.00368 µM)
